Several values for one entry are separate records, joined by “and”; a condition that tells them apart may be missing. Identical values can stand only once.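 How tested: cells in 96-well plates exposed to compound for 48 hours at five concentrations. The concentration for 50% growth inhibition is given as GI50. TGI: total growth inhibition.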
How the values were obtained:
Experiment in all cases: NCI tumour cell line growth inhibition, 48 h
[1] = system: IGROV1 ovarian
[2] = system: RXF-631 renal
[3] = system: HCT-15 colon
[4] = system: KM12 colon
[5] = system: SR leukemia
[6] = system: SK-MEL-5 melanoma
[7] = system: 786-0 renal
[8] = system: HCC-2998 colon
[9] = system: SNB-78 CNS
[10] = system: SK-OV-3 ovarian
[11] = system: MALME-3M melanoma
[12] = system: P388/ADR leukemia
[13] = system: HOP-18 NSCLC
[14] = system: RXF 393 renal
[15] = system: NCI-H23 lung
[16] = system: HT29 colon
[17] = system: HOP-62 NSCLC
[18] = system: NCI-H460 lung
[19] = system: DMS 273 small cell lung
[20] = system: SN12K1 renal
[21] = system: UACC-257 melanoma
[22] = system: UACC-62 melanoma
[23] = system: COLO 205 colon
[24] = system: OVCAR-5 ovarian
[25] = system: SNB-19 CNS
[26] = system: EKVX NSCLC
[27] = system: K-562 leukemia
[28] = system: TK-10 renal
[29] = system: U251 CNS

## NC(=O)C#CC(N)=O
[1]
  TGI: 213 µM and 189 µM and > 100 µM
[2]
  TGI: > 100 µM
[3]
  GI50: 20 µM and 26.2 µM and > 100 µM
  TGI: 76.2 µM and 100 µM and > 100 µM
[4]
  GI50: 38.9 µM and 54.1 µM and > 100 µM
  TGI: 164 µM and 161 µM and > 100 µM
[5]
  TGI: 36.3 µM
[6]
  GI50: 15 µM and 54.6 µM
  TGI: 28.2 µM and > 100 µM
[7]
  TGI: > 58 µM
[8]
  TGI: 179 µM and > 100 µM
[9]
  GI50: 22.5 µM and 121 µM
  TGI: 72.3 µM and 202 µM and > 100 µM
[10]
  TGI: 231 µM and 214 µM and > 100 µM
[11]
  GI50: 5.74 µM
  TGI: 19.7 µM and 18.1 µM
[12]
  TGI: 875 µM
[13]
  TGI: 43.5 µM and 33.2 µM
[14]
  GI50: 3.62 µM and 10.2 µM and 14.6 µM
  TGI: 14.6 µM and 22.7 µM and 29.5 µM
[15]
  GI50: 46.4 µM
  TGI: 238 µM and 207 µM and > 100 µM
[16]
  GI50: 31.2 µM and 17 µM
  TGI: 131 µM and 35.4 µM and > 100 µM
[17]
  GI50: 57.4 µM
  TGI: 211 µM and 170 µM and > 100 µM
[18]
  GI50: 38.3 µM and 32.8 µM and > 100 µM
  TGI: 146 µM and 126 µM and > 100 µM
[19]
  GI50: 23.5 µM and 30.5 µM and > 100 µM
  TGI: 73.1 µM and 106 µM and > 100 µM
[20]
  GI50: 14.8 µM
  TGI: 27.4 µM and 26.7 µM
[21]
  GI50: 4.46 µM and 13.6 µM
  TGI: 14.2 µM and 19.5 µM
[22]
  TGI: 28.4 µM and 29.5 µM and 43 µM
[23]
  GI50: 15.4 µM and 15 µM and 73.6 µM
  TGI: 30.8 µM and 29.8 µM and > 100 µM
[24]
  GI50: 20.9 µM and > 54 µM
  TGI: 38.4 µM and 47.9 µM and > 90.8 µM
[25]
  TGI: 241 µM and > 100 µM
[26]
  GI50: 16.1 µM and 18.1 µM and > 100 µM
  TGI: 29.7 µM and 35 µM and > 100 µM
[27]
  TGI: 15.1 µM and 96.6 µM and 24.3 µM
[28]
  TGI: 36.2 µM
[29]
  GI50: 43 µM and 39.1 µM and > 100 µM
  TGI: 152 µM and 132 µM and > 100 µM

From PubChem BioAssay (NCI)
